What was measured:
[1] = target: T1, Signal transducer and activator of transcription 1-alpha/beta (Homo sapiens, UniProt P42224); test: Electrophoretic Mobility Shift Assay (EMSA); conditions: pH 7.8; 22 °C
T1 sequence (P42224 whole entry): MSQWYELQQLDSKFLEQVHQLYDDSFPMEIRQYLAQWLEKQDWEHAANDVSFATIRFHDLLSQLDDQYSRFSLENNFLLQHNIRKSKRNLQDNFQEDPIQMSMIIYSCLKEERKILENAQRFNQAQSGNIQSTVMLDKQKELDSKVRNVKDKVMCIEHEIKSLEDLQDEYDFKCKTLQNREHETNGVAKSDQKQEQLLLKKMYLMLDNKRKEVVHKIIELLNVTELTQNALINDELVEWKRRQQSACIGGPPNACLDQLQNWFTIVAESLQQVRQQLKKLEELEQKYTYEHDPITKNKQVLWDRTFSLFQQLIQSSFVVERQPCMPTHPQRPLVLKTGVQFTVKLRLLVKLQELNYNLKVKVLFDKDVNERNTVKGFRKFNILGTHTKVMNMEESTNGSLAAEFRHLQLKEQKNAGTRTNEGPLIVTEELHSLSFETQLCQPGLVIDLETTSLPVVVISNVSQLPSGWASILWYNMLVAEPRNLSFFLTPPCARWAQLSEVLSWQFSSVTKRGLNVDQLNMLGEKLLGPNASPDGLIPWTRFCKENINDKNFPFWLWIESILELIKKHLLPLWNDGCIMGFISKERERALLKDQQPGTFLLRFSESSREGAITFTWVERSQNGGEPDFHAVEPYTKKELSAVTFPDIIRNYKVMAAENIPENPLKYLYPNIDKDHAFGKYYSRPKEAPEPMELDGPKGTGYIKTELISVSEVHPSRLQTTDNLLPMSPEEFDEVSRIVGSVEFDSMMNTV
Description: (§1) STAT proteins were expressed in Sf9 cells from a baculovirus encoding the recombinant protein. A nuclear extract of the Sf9 cells was incubated with 32P-labeled high affinity c-fos sis inducible element (hSIE) either alone or in the presence of inhibitor. After incubation, samples were electrophoresed on polyacrylamide gels. The gels were dried, exposed to a phosphorimager screen and scanned. IC50 values were derived from plots of spot intensity versus phosphopeptide concentration. The affinity of peptides to the SH2 domain is measured by the intensity of the radioactivity of the Stat-DNA complex band in the electrophoresis gel.

[2] = target: Signal transducer and activator of transcription 3 (Mus musculus, UniProt P42227); test: Electrophoretic Mobility Shift Assay (EMSA); conditions: pH 7.8; 22 °C
Chain of Signal transducer and activator of transcription 3 (P42227 whole entry): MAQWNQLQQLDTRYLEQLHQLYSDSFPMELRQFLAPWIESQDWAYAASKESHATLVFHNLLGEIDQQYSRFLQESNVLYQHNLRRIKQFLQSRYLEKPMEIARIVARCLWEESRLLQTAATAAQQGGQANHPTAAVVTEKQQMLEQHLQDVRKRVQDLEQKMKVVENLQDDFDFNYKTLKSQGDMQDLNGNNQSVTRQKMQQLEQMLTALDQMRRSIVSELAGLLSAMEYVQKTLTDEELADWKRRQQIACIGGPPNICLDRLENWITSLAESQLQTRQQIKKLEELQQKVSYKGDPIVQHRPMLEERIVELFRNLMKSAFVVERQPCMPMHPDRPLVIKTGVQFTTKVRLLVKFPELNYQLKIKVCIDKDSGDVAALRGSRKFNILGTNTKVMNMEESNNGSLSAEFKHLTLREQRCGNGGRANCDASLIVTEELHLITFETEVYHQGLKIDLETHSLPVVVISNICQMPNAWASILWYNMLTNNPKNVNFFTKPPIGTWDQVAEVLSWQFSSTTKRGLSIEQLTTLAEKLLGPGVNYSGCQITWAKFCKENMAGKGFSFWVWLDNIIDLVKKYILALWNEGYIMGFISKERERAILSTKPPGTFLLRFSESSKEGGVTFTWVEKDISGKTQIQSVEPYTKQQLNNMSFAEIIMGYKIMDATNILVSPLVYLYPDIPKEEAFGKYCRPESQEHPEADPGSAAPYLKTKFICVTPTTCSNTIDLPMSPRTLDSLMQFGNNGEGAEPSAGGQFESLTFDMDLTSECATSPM
Description: as §1

CC(C)C[C@H](NC(=O)[C@H](Cc1ccc(OP(=O)(O)O)cc1)NC(=O)c1ccc(C#N)cc1)C(=O)NC(C)C [4-[(2S)-2-[(4-cyanophenyl)formamido]-2-{[(1S)-3-methyl-1-(propan-2-ylcarbamoyl)butyl]carbamoyl}ethyl]phenoxyphosphonic acid]
IC50 [1]: 58 µM | IC50 [2]: 760 µM

Reference: BindingDB's records for doi:10.1016/j.bmcl.2007.01.077 (Yale University, 2007)
